What all share (experiment): NCI tumour cell line growth inhibition, 48 h
Assay [1] has as its system HOP-18 NSCLC.
In assay [2] the test system is DMS 114 small cell lung.
Assay [3] deals with M19-MEL melanoma.
The test system of assay [4] is KM20L2 colon.
The subject of assay [5] is XF 498 CNS.
Assay [6] concerns DMS 273 small cell lung.
In assay [7] the test system is RXF-631 renal.
The subject of assay [8] is SNB-78 CNS.
The test system of assay [9] is MDA-N.
Assay [10] deals with P388/ADR leukemia.
Assay [11] concerns SN12K1 renal.
Assay [12] concerns P388 leukemia.

SMILES strings stand for the structures.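 A five-concentration, 48-hour dose response in 96-well plates underlies each endpoint, interpolated linearly between surrounding concentrations. TGI: concentration producing complete growth inhibition.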

In the case of `COc1ccc2nc(-c3cccs3)cc(C(O)CN3CCSCC3)c2c1` (centres undefined), the TGI in assay [1] is 54.7 µM; in assay [2], 38.7 µM; in assay [3] it was 58.6 µM; in assay [4], 45.5 µM; in assay [5], 32.1 µM; in [6], 40 µM.
`CC1=C(Oc2ccccc2)C(CCC(=O)O)c2c(O)cc(Cl)c(O)c21` (centres undefined): the TGI in assay [7], in [2], in assay [3], in [8], in assay [4] and in assay [5] was above 100 µM each time. The TGI in [6] is above 100 µM.
For the molecule `CN(C)CCCNC(CC#N)CCC#N` (centres undefined), the TGI in assay [9] is above 10 µM.
Regarding `O=C(NCCCCCCNC(=O)n1cc(F)c(=O)[nH]c1=O)NCCCOCCOCCOCCOCCOCCOCCOCCOCCOCCOCCOCCOCCOCCOCCOCCOCCOCCOCCOCCOCCOCCCNC(=O)C(O)C(O)C(O)C(O)CO` (centres undefined), the TGI in [1], in assay [10], in assay [11], in assay [2], in [3] and in assay [8] was above 100 µM each time. Also, the TGI in [12], in assay [4], in [5], in [6] and in assay [9] was above 100 µM throughout.
For `COc1cc(C(=O)C/C(CCCC(=O)Nc2ccccc2[N+](=O)[O-])=N/NC(=O)c2cc3ccccc3cc2O)ccc1O`, the TGI was above 100 µM in assay [7]; above 100 µM in assay [1]; above 100 µM in assay [8]; above 91.1 µM in assay [4]; above 100 µM in [5]; 43.6 µM in assay [6].
For the molecule `CCN(CC)c1ccc(C(=O)c2ccccc2C(=O)O)c(O)c1`, the TGI in assay [2], in assay [3], in assay [8], in assay [5] and in assay [6] was above 100 µM each time.
Consider `Cc1cc(N(CCC#N)CCC#N)ccc1N=Nc1cccc(C(=O)O)c1`, for which the TGI in assay [7], in assay [1], in [2], in [3], in assay [8] and in assay [5] was above 100 µM in each case. In assay [6], this molecule yielded a TGI above 100 µM.
Consider `O=C(N/C(=C\c1ccc2c(c1)OCO2)c1nc2ccccc2[nH]1)c1ccccc1`, for which the TGI in [1] is above 100 µM; in [2] it was 6.08 µM; in [3], 19.8 µM; in assay [8] it was above 95.9 µM; in assay [4] it was above 89.7 µM; in assay [5], 34 µM. The same molecule returned a TGI in assay [6] above 100 µM.
Regarding `Cc1c(C(=O)C/C(=N\O)C(=O)Nc2cc(Cl)c(Cl)cc2Cl)[n+](=O)c2ccccc2n1[O-]`, the TGI in assay [1] was 82.4 µM; in [2] it was 19.9 µM; in assay [3], 5.1 µM; in [8] it was above 100 µM; in assay [4] it was 41.4 µM; in [5], 46.8 µM. Besides, in assay [6], the TGI is 38 µM.
With `CC1OC(O[C@@H]2OC=C(C=O)[C@@]3(O)CC[C@H](C)[C@@H]23)C(O)C(O)C1O` (some centres undefined), the TGI in assay [9] was above 100 µM.
On to `CC1=C(C)C(=O)c2c(cc3ccccn23)C1=O`, for which the TGI stood at 21.7 µM in [7]; 68.2 µM in assay [1]; 26.9 µM in assay [2]; 4.42 µM in assay [3]; 77.5 µM in assay [8]; 32.2 µM in [6].
Take `CC1=Nc2ccccc2S/C1=C(/C)NNC(=O)C(N)=O`: the TGI in [1], in assay [2], in assay [3], in [8], in [4] and in assay [5] was above 100 µM each time. For the same molecule, the TGI in [6] is above 100 µM.
Consider `COC(=O)C(=O)C1(CCC(C)=O)c2ccccc2-c2c(C)ccc(C)c21` (centres undefined), for which the TGI in [1] is above 100 µM; in assay [2], above 100 µM; in [3], above 100 µM; in assay [8] it was 78.5 µM; in [4], above 100 µM; in assay [6], above 100 µM.
On to `Cc1ccc(N=Cc2ccc3c(c2)OCO3)cc1C`, for which the TGI in assay [7], in assay [1], in assay [3], in assay [8], in assay [4] and in assay [5] was above 100 µM each time. The molecule further displayed a TGI in assay [6] above 100 µM.
In the case of `CCCC(=O)OC1C(C(O)CO)OC2OC(C)(C)OC21` (centres undefined), the TGI in assay [1], in assay [2], in [3], in assay [8], in assay [4] and in [5] was above 100 µM each time. In addition, the TGI in assay [6] and in [9] was above 100 µM each time.
Take `COc1cc(OC(C)=O)cc2c(OC(C)=O)ccc(OC(C)=O)c12`: the TGI in assay [8] and in assay [4] was above 100 µM throughout.

(Values after PubChem BioAssay (NCI).)
